The values below come from patent publication US20240002441A1, “PEPTIDES AND USES THEREOF IN MODULATION OF AMYLOID-BETA PROTEIN DEGRADING PROTEASES” (priority 2020, published 2024).

For one experiment, the target named is T1, NEP (Homo sapiens, UniProt P08473).
T1 construct: purchased R & D systems 1182-ZNC-010
The experiment in a line: Cleavage of synthetic Aβ42 by NEP, LCMS (Example 7). It is filed as biochemical. The conditions noted are these: NEP 0.15 ng/μL, peptide 9 μM, Aβ42 0.05 μg/μL. Here is the method:
Synthetic Aβ40 (0.10 μg/μL) was added to a reaction mixture containing NEP (0.05 ng/μL) pre-incubated with SEQ ID NO:2 or scrambled control (9 μM) for 1 h at 37° C. Synthetic Aβ42 (0.05 μg/μL) was added to a reaction mixture containing NEP (0.15 ng/μL) preincubated with either scrambled control or SEQ ID NO:2 (9 μM) for 1 h at 37° C. Samples containing enzyme alone had only NEP buffer (Table 2). The cleavage reaction was allowed to continue in a thermomixer at 37° C. Aliquots of equal volume were taken over 24 h. Aliquots were immediately acidified with 0.1% trifluoroacetic acid (TFA) to terminate enzyme activity and snap frozen in dry ice. Samples were stored at −80° C. until analysed by LCMS.
Samples were analysed by LC-MS/MS using a quadrupole TOF mass spectrometer (MicroTOFq, Bruker Daltonics, Bremen, Germany) coupled online with a 1200 series nano-HPLC (Agilent technologies, Santa Clara, CA, USA). Samples were injected onto a zorbax 300SB reversed phase trap column with 95% solvent A (0.1% formic acid) at a flow rate of 10 μL/minute. The peptides were eluted over a 10-min gradient to 70% solvent B (80% acetonitrile, 0.1% formic acid) and separated on a 15-cm, 75-μmID zorbax 300SB nanocolumn. The eluent was nebulised and ionised using the Bruker nano-ESI source with a capillary voltage of 4500 V, dry gas at 180° C., flow rate of 5 L/minute and nebuliser gas pressure at 300 mbar. […]

A further experiment deals with T2, ACE2 (Homo sapiens, UniProt Q9BYF1).
T2 construct: purchased R & D systems 933-ZN-010
The experiment in a line: Cleavage of synthetic Ang II to Ang 1-7 by ACE2, LCMS (Example 8). The format is biochemical. To be noted: rhACE2 0.1 ng/μL, peptide 1.7 μM, Ang II 0.02 μg/μL. On the procedure:
Samples were analysed by LC-MS/MS using a quadrupole TOF mass spectrometer (MicroTOFq, Bruker Daltonics, Bremen, Germany) coupled online with a 1200 series nano-HPLC (Agilent technologies, Santa Clara, CA, USA). Samples were injected onto a zorbax 300SB reversed phase trap column with 95% solvent A (0.1% formic acid) at a flow rate of 10 μL/minute. The peptides were eluted over a 10-min gradient to 70% solvent B (80% acetonitrile, 0.1% formic acid) and separated on a 15-cm, 75-μmID zorbax 300SB nanocolumn. The eluent was nebulised and ionised using the Bruker nano-ESI source with a capillary voltage of 4500 V, dry gas at 180° C., flow rate of 5 L/minute and nebuliser gas pressure at 300 mbar. The MS acquisition was in selected ion monitoring mode after selected ion extraction of the MS spectra. Prior to analysis, the qTOF mass spectrometer was calibrated using a 1:50 dilution tuning mix (Agilent technologies, Santa Clara, CA, USA). Data from MS run were processed in Skyline version 19.1.0.193 (Uni. Of Washington, WA, USA) to perform ion chromatogram extractions and peak integrations.
rhACE2 (0.1 ng/μL) was incubated with SEQ ID NO:2 (1.7 μM) for 1 h at 37° C. Ang II (0.02 μg/μL) was then added to the reaction mixture. Aliquots of equal volume were collected at 0, 3, 6 and 24 h. […] The samples were analysed by LC-MS/MS using the method in Example 7.

In experiment [1] the test system is Ang II-induced expression of IL-6 and Collagen III in EA.hy926 cells. The experiment in a line: Ang II-induced expression of IL-6 and Collagen III in EA.hy926 cells, western blotting (Example 9). The format is cell-based. To be noted: 24 h. Here is the method: EA.hy926 cells (passage 40) were seeded at a density of 1×10^6 cells/mL. After 24 hours, cells were incubated overnight in reduced serum media. Cells were then treated over 24 h as follows: • 1. Vehicle control • 2. Ang II (10 nM) • 3. […] Ang II (10 nM)+rhACE2 (0.05 ng/μL) • 5.
Following incubation, cells were lysed using lysis buffer (Thermo Fisher Scientific, Cat #89900) containing 1% protease inhibitor (Thermo Fisher Scientific, Cat #1861278). Cell lysate was centrifuged at 13,000 rpm for 10 min. Protein concentration in the supernatant was determined by NanoDrop (Thermo Fisher Scientific, Cat #ND-1000). Supernatants were stored at −30° C. until analysed.
Samples were diluted in SDS-PAGE reducing sample buffer (Bio-Rad Laboratories, Cat #1610747; California, USA) containing 1% β-mercaptoethanol (Bio-Rad Laboratories, Cat #221610710) to reach a final concentration of […]. Prior to loading, samples were heated at 95° C. for 5 min. Samples were loaded into the wells alongside the molecular weight marker (Life Technologies, Cat #LC5800; California, USA). Electrophoresis was conducted at 200 V for 40 min in 1× running buffer. Following protein separation by SDS-PAGE, proteins were blotted onto nitrocellulose membranes at 100 V for 1 h in 1× transfer buffer. The membranes were then blocked in 5% skim milk in 1× Tris-buffered saline (TBST) containing 0.05% Tween 20 (Thermo Fisher Scientific, Cat #28352) for 1 h at room temperature. The membranes were incubated with IL-6 (1:500; Thermo Fisher Scientific, Cat #700480) or collagen III (1:500; Invitrogen, Cat #PA5-27828) primary antibodies while rocking at 4° C. overnight. Membranes were then probed with secondary antibody conjugated with horseradish peroxidase (HRP) (1:6000) for 1 h at room temperature. The HRP-labelled proteins were detected using chemiluminescence SuperSignal™ ECL Western Blotting Substrate (Thermo Fisher Scientific, Cat #34577) at 1:1 ratio. Beta-actin was used as a loading control. Protein bands were analysed using ImageJ (version 1.51) and band density was normalised with the respective beta-actin.
(Immunoblotting shows a protein as a band on a membrane.)

The test system of another experiment is SARS-CoV-2. It is filed as cell-based. To be noted: post-treatment, Vero cells; for IL-6 expression compared to PBS: normalised to GAPDH.

Read-outs that look alike come from different tables or passages of the source.

T2 sequence (Q9BYF1 18-805): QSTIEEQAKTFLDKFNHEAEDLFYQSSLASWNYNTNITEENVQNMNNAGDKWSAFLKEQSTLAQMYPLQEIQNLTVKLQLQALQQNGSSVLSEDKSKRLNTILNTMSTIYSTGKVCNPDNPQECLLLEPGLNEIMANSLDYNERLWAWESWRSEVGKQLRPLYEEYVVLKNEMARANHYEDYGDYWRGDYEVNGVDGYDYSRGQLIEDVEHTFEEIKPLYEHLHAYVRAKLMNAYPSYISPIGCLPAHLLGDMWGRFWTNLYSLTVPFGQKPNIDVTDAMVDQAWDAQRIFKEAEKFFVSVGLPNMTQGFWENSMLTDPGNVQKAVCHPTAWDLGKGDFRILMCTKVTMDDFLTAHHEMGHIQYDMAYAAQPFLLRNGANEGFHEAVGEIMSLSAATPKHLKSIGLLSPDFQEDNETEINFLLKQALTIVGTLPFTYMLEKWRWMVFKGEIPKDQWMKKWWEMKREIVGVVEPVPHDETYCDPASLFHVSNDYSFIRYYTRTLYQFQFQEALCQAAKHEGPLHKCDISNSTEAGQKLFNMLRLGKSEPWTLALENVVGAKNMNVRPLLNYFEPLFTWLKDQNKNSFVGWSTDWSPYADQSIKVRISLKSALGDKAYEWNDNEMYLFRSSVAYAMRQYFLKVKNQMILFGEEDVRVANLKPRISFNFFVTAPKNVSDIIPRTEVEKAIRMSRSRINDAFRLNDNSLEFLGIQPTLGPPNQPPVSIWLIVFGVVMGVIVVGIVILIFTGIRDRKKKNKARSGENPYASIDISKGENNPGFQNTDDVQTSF
T1 sequence (P08473 whole entry): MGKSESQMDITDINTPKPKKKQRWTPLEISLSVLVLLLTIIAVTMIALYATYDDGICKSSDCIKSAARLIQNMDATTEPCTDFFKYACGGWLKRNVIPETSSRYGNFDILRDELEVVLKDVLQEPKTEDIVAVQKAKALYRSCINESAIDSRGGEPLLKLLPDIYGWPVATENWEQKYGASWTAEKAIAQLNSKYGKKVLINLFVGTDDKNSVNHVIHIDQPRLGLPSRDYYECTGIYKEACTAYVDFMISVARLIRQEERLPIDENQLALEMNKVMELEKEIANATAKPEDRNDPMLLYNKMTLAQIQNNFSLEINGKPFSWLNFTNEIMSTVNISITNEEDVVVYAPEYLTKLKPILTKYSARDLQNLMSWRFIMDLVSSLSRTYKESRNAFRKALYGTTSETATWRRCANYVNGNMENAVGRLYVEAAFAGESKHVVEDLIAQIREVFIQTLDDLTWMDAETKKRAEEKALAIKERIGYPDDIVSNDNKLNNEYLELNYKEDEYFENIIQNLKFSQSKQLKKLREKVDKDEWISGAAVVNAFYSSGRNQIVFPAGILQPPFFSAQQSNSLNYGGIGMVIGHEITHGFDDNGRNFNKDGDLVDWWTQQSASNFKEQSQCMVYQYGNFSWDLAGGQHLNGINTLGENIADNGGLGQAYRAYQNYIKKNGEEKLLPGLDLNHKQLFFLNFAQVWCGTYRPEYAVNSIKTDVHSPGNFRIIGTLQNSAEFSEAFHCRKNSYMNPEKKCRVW

As for “H-SLFELGKMIL-NH2 [SEQ ID NO:2, H2N-SLFELGKMIL-NH2]”, at NEP, the “amount of cleavage products Aβ1-12, Aβ1-16 and Aβ1-21 formed from Aβ42 over 24 h, compared with scrambled control” value is “significantly higher”. In addition, at ACE2, the “production of Ang 1-7” value is given as 165±12 % of ACE2 alone. Also, on ACE2 (24 h), the “ACE2-mediated breakdown of Ang II over 24 h, decrease in peak area” value was 83±5 % of initial. In experiment [1] (Ang II 10 nM plus 2A 26 μM and/or ACE2 0.05 ng/μL), the “Collagen III expression compared to cells treated with Ang II alone” value is given as “significantly lower”. Moreover, the “IL-6 expression compared to cells treated with Ang II alone” value in experiment [1] (Ang II 10 nM plus peptide 26 μM and/or rhACE2 0.05 ng/μL) is “significantly lower”. Also, the “Collagen III expression” value in experiment [1] (EA.hy926 cells, Ang II 10 nM alone, or Ang II and 2A (26 μM)) came to 28±6%. In the experiment with SARS-CoV-2 (200 ng/μL), the “viral RNA compared to PBS” value is reported as “significantly reduced” and the “IL-6 expression compared to PBS” value is “significantly reduced”. In addition, in the experiment with SARS-CoV-2 (400 ng/μL), the “viral RNA compared to PBS” value is recorded as “significantly reduced”, the “viral titre compared to PBS” value is “significantly reduced” and the “IL-6 expression compared to PBS” value was “significantly reduced”.
